Measurements reported in PMC7052193, “Nanobody-enabled monitoring of kappa opioid receptor states” (Nature Communications, 2020).
Positions count from the first letter of the chain named. Several values for one entry are separate records, joined by “and”; a condition that tells them apart may be missing. Equal values may be shown once. Read-outs that look alike come from different tables or passages of the source.

How the values were obtained:
5-HT4R = assay type: cell-based, human; conditions: Gαs, 5-HT4R wt
5-HT2AR [1] = assay type: cell-based, human; conditions: 5-HT2AR-KOR, Log [5-HT]
5-HT2AR [2] = assay type: cell-based, human; conditions: 5-HT2AR-KOR, Log [Drug]
HRH2 [3] = molecular target: HRH2 (Homo sapiens, UniProt P25021); conditions: Log [Histamine]
HRH2 (Homo sapiens, UniProt P25021), sequence (P25021 whole entry): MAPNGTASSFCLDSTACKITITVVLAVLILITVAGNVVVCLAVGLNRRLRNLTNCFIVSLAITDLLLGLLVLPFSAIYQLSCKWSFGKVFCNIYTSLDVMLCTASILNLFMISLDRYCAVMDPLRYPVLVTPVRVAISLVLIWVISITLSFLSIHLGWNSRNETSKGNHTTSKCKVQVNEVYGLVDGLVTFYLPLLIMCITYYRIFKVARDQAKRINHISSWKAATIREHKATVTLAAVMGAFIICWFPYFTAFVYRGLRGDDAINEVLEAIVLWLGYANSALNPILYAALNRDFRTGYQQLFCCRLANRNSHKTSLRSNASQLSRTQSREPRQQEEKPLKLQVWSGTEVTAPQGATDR

HRH2 [4] = conditions: Log [Histamine]
HRH2 [5] = conditions: Gαs, HRH2 wt
kappa receptor = molecular target: kappa receptor; design: method as in Thomas JB et al., 2001; conditions: previously reported; ref Thomas JB et al., 2001; read-out: Ki, kappa receptor binding assay; cited from earlier work
human wild-type KOR = human wild-type KOR (Homo sapiens, UniProt P41145); experiment: [3H]-JDTic association and dissociation assays; assay type: binding
human wild-type KOR, sequence (P41145 whole entry): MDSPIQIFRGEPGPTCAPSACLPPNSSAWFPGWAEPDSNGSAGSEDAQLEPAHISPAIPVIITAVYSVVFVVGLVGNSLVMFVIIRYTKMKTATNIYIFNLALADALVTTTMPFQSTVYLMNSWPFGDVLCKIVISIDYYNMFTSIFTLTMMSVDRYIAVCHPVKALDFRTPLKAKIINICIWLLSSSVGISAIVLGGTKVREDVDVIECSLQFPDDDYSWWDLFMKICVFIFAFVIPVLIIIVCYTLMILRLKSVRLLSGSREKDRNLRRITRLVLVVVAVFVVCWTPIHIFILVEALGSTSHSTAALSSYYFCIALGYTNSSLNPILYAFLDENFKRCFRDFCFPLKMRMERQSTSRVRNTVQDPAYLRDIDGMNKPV
Description: Radioligand dissociation and association assays were performed in parallel using the same concentrations of radioligand, membrane preparations and binding buffer (50 mM Tris, 10 mM MgCl2, 0.1 mM EDTA, 0.1% BSA, pH 7.4).
Time points spanned 1 min to 6 h, depending on experimental conditions and radioligand. The association (Kon) and dissociation (Koff) values were calculated using the Prism model:
Association kinetics to obtain kon5 Y=Ymax*(1−e^−kob*X).
Dissociation—one phase exponential decay to obtain koff6 Y=YO−NS*e^−K*X,

KOR = KOR (Homo sapiens, UniProt P41145); experiment: cAMP inhibition assay (GloSensor); assay type: cell-based
KOR, sequence (P41145 whole entry): as above

[6] = molecular target: T1, human KOR containing C-terminal Renilla luciferase (RLuc8) (human, UniProt P41145); experiment: FRET or BRET; kinetic BRET in HEK 293T cells co-expressing KOR-Rluc and Nb6-mVenus or Nb39-mVenus; 10 µM Sal A, then 10 µM JDTic added at the indicated times; t1/2 from one phase exponential decay; conditions: partners not purified
T1 construct: kappa opioid receptor, human, wild type; also called KOR-Rluc; kappa opioid receptor; source: HEK 293T, co-transfected, in live cells; not shown: RLuc8, C-terminal, kept
T1 sequence (P41145 whole entry): as above

[7] = molecular target: T1, human KOR containing C-terminal Renilla …; experiment: FRET or BRET; live HEK 293T cells co-transfected with receptor-RLuc and nanobody-mVenus (1:3); net BRET ratio without agonist (no drug, or with the antagonist JDTic); 20 mM HEPES, 1X HBSS, pH 7.4; conditions: partners not purified
[8] = read-out: EC50, G protein activation

NCCc1c[nH]c2ccc(O)cc12 [5-HT]
pEC50 ± SEM, G protein activation (5-HT4R): 8.55 ± 0.13
EC50 (5-HT4R; [8]): 2.85 nM
Net BRET receptor and Nb6, source data Figure 5b (5-HT2AR [1]; M = -4): 4.555 and 4.236 and 2.584
Net BRET receptor and Nb6, source data Figure 5b (5-HT2AR [1]; M = -6): 27.0627 and 18.3518 and 18.7135
Net BRET receptor and Nb6, source data Figure 5b (5-HT2AR [1]; M = -7): 54.7274 and 50.7842 and 46.0256
Net BRET receptor and Nb6, source data Figure 5b (5-HT2AR [1]; M = -8): 79.692 and 81.7337 and 74.4168
Net BRET receptor and Nb6, source data Figure 5b (5-HT2AR [1]; M = -9): 96.2676 and 98.9652 and 90.7989
Net BRET receptor and Nb6, source data Figure 5b (5-HT2AR [1]; M = -10): 102.206 and 99.7037 and 92.1127
Net BRET receptor and Nb6, source data Figure 5b (5-HT2AR [1]; M = -11): 99.4094 and 102.177 and 98.4133
Net BRET G protein activation, source data Figure 5c (5-HT2AR [2]; M = -5): 4.77 and 5.378 and 5.642
Net BRET G protein activation, source data Figure 5c (5-HT2AR [2]; M = -7): 5.149 and 9.509 and 8.117
Net BRET G protein activation, source data Figure 5c (5-HT2AR [2]; M = -8): 64.908 and 45.488 and 55.524
Net BRET G protein activation, source data Figure 5c (5-HT2AR [2]; M = -9): 89.3557 and 61.3025 and 75.4781
Net BRET G protein activation, source data Figure 5c (5-HT2AR [2]; M = -10): 101.409 and 99.4572 and 101.001
Net BRET G protein activation, source data Figure 5c (5-HT2AR [2]; M = -11): 93.2037 and 102.876 and 98.9921
Net BRET G protein activation, source data Figure 5c (5-HT2AR [2]; M = -12): 99.8736 and 92.5765 and 96.7631

NCCc1c[nH]cn1 [Histamine]
HRH2 wt (Figure S10) (HRH2 [3]; M -4): 0.035 and 0.037 and 0.032
HRH2 wt (Figure S10) (HRH2 [3]; M -5): 0.04 and 0.037 and 0.043
HRH2 wt (Figure S10) (HRH2 [3]; M -6): 0.037 and 0.041 and 0.043
HRH2 wt (Figure S10) (HRH2 [3]; M -7): 0.041 and 0.036 and 0.042
HRH2 wt (Figure S10) (HRH2 [3]; M -8): 0.038 and 0.039
HRH2 wt (Figure S10) (HRH2 [3]; M -9): 0.037 and 0.039 and 0.042
HRH2 wt (Figure S10) (HRH2 [3]; M -10): 0.036 and 0.04 and 0.031
HRH2 wt (Figure S10) (HRH2 [3]; M -11): 0.029 and 0.038 and 0.037
HRH2-KOR (Figure S10) (HRH2 [4]; M -4): 5.219 and 6.229 and 8.754
HRH2-KOR (Figure S10) (HRH2 [4]; M -8): 49.1583 and 70.3704
HRH2-KOR (Figure S10) (HRH2 [4]; M -9): 71.8855 and 67.8451 and 91.0774
HRH2-KOR (Figure S10) (HRH2 [4]; M -10): 90.0673 and 96.633 and 108.754
HRH2-KOR (Figure S10) (HRH2 [4]; M -11): 95.6229 and 98.6532 and 105.724
pEC50 ± SEM, G protein activation (HRH2 [5]): 7.64 ± 0.10
EC50 (HRH2 [5]; [8]): 23.2 nM

CC(C)[C@@H](CN1CC[C@@](C)(c2cccc(O)c2)[C@@H](C)C1)NC(=O)[C@H]1Cc2ccc(O)cc2CN1 [JDTic, (3R)-7-hydroxy-N-((1S)-1-[[(3R,4R)-4-(3-hydroxyphenyl)-3,4-dimethyl-1-piperidinyl]methyl]-2-methylpropyl)-1,2,3,4-tetrahydro-3-isoquinolinecarboxamide]
Ki (kappa receptor): 0.3 nM
change of binding affinity (Ki) or equilibrium constant (Kd) with KOR in the presence of Nb6 or Nb39 (human wild-type KOR): no significant changes
t1/2 increase, KOR preincubated with Nb6 compared to untreated KOR (human wild-type KOR): ~ 2 fold
BMAX ± SEM (human wild-type KOR; KOR + Nb6): 468 ± 54 CPM
BMAX ± SEM (human wild-type KOR; KOR + Nb39): 423 ± 59 CPM
BMAX ± SEM (human wild-type KOR; KOR wt): 412 ± 46 CPM
activity at KOR, Gi-mediated inhibition of cAMP production (KOR): potent inverse agonist

B1: Nb39-mVenus (VHH)
VHH: QVQLVESGGGLVRPGGSLRLSCVDSERTSYPMGWFRRAPGKEREFVASITWSGIDPTYADSVADRFTTSRDVANNTLYLQMNSLKHEDTAVYYCAARAPVGQSSSPYDYDYWGQGTQVTVSS
notes: nanobody chain of the cited KOR-MP1104-Nb39 structure PDB 6B73; A purified Nb39 from E. coli WK6 (no mVenus) was used at 5 µM in the radioligand assays; the functional row on it uses this id; also called positive allosteric nanobody; active-state associated nanobody; source: HEK 293T, co-transfected, in live cells; not shown: mVenus, C-terminal, kept
t1/2 of the reversal of the KOR-Nb39 association by JDTic [6]: 107 ± 15 s

B2: Nb6-mVenus with R102 mutated (VHH)
VHH: QVQLQESGGGLVQAGESLRLSCAASGTIFRLYDMGWYRRVSGNQRELVASITSGGSTKYGDSVKGRFTISRDNAKNTVYLQMSSLKPEDTAVYYCNAEYATGIWEELLDGWGQGTQVTVSS
notes: as the chain of m4 (PDB 6VI4) with R102 mutated; also called Nb6 R102 mutant; source: HEK 293T, co-transfected, in live cells; not shown: mVenus, C-terminal, kept
binding result [7]: no binding

B3: Nb6-mVenus with W106 mutated (VHH)
VHH: B2 VHH with A100R, W104A
notes: as the chain of m4 (PDB 6VI4) with W106 mutated; also called Nb6 W106 mutant; source: HEK 293T, co-transfected, in live cells; not shown: mVenus, C-terminal, kept
binding result [7]: no binding
